The values below come from patent US10696693B2, “Fused imidazole derivatives as TGF-beta inhibitors” (Rigel Pharmaceuticals, Inc., priority 2014, dated 2020).

The subject of one experiment is GDF8. The experiment is described as follows: AlphaScreen SureFire p-SMAD3 (Ser423/425) assay, GDF8-stimulated cells. As to conditions: Mus musculus. It counts as cell-based. An outline of the steps: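 A SureFire AlphaScreen assay measured phosphorylation of endogenous SMAD-3 at Ser423/425 in cell lysates. Cells were treated with three-fold serially diluted compounds in DMSO for about 10 minutes, then stimulated with GDF8. After medium removal, cells were lysed in 1× Lysis Buffer (about 25 μL) with gentle shaking for 5-10 minutes.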

For another experiment, the system named is TGF-β. Kind of experiment: AlphaScreen SureFire p-SMAD3 (Ser423/425) assay, TGF-β-stimulated cells. Format: cell-based. As to conditions: Mus musculus. Put shortly: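 The p-SMAD-3 (Ser423/425) SureFire assay measured phosphorylation of endogenous SMAD-3 in cell lysates. Cells were plated overnight in collagen-coated plates, exposed to three-fold serially diluted compounds for about 10 minutes, then stimulated with TGFβ. Lysates (5 μL) received acceptor bead mix for 2 hours, then donor beads for 1½ hours before AlphaScreen reading.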

Setting [1] is: MPC-11, read-out: GDF8: inhibition of GDF8 signaling, GDF pSMAD (MPC11), p-SMAD3 (Ser423/425) AlphaScreen in cell lysate, GDF8 stimulation.
Setting [2] is: MPC-11, read-out: TGF-β: inhibition of TGF-β signaling, TGF-β pSMAD (MPC-11), p-SMAD3 (Ser423/425) AlphaScreen in cell lysate, TGF-β stimulation.
The mark [3] stands for this setting: MPC-11, p-SMAD3 (Ser423/425) AlphaScreen in cell lysate, MPC11, GDF8 stimulation, read-out: GDF8: inhibition of GDF8 signaling, GDF pSMAD (MPC11).
[4] abbreviates: p-SMAD3 (Ser423/425) AlphaScreen in cell lysate, MPC-11, TGF-β stimulation, read-out: TGF-β: inhibition of TGF-β signaling, TGF-β pSMAD (MPC-11).

SMILES strings stand for the structures. Where two headings read alike, the source gives them in different places.

`CN(C)C(=O)C1CCC2(CC1)Cc1nc(-c3ccc(F)cc3)c(-c3ccc4ncnn4c3)n1C2` (stereo not drawn) [Compound 79, 3′-([1,2,4]triazolo[1,5-a]pyridin-6-yl)-2′-(4-fluorophenyl)-N,N-dimethyl-5′H,7′H-spiro[cyclohexane-1,6′-pyrrolo[1,2-a]imidazole]-4-carboxamide]: the IC50 with GDF8 (setting [1]) and in the experiment with TGF-β (setting [2]) was over 1000 nM each time.

For `NC(=O)C1CCC2(CC1)Cc1nc(-c3ccc(F)cc3)c(-c3ccc4ncnn4c3)n1C2` (stereo not drawn) [Compound 80, 3′-([1,2,4]triazolo[1,5-a]pyridin-6-yl)-2′-(4-fluorophenyl)-5′H,7′H-spiro[cyclohexane-1,6′-pyrrolo[1,2-a]imidazole]-4-carboxamide], the IC50 in the experiment with GDF8 (setting [1]) and in the experiment on TGF-β (setting [2]) was over 1000 nM throughout.

With `Fc1ccc(-c2nc3n(c2-c2ccc4ncnn4c2)CCC3)c(F)c1Cl` [Compound 81, 6-(2-(3-chloro-2,4-difluorophenyl)-6,7-dihydro-5H-pyrrolo[1,2-a]imidazol-3-yl)-[1,2,4]triazolo[1,5-a]pyridine], the IC50 with GDF8 (setting [1]) and in the experiment with TGF-β (setting [2]) was 100 to 1000 nM each time.

As to `Fc1ccc(Cl)cc1-c1nc2n(c1-c1ccc3ncnn3c1)CCC2` [Compound 82, 6-(2-(5-chloro-2-fluoro)-6,7-dihydro-5H-pyrrolo[1,2-a]imidazol-3-yl)-[1,2,4]triazolo[1,5-a]pyridine], the IC50 with GDF8 (setting [3]) and with TGF-β (setting [4]) was under 50 nM each time.

Turning to `Fc1ccc(Cl)cc1-c1nc2n(c1-c1ccc3nccn3c1)CCC2` [Compound 83], the IC50 in the experiment with GDF8 (setting [3]) and in the experiment with TGF-β (setting [4]) was under 50 nM in each case.

On to `CS(=O)(=O)OCC1CCC2(CC1)Cc1nc(-c3ccc(F)cc3)c(-c3ccc4ncnn4c3)n1C2` (stereo not drawn) [Compound 84, (3′-([1,2,4]triazolo[1,5-a]pyridin-6-yl)-2′-(4-fluorophenyl)-5′H,7′H-spiro[cyclohexane-1,6′-pyrrolo[1,2-a]imidazol]-4-yl)methyl methanesulfonate], for which the IC50 in the experiment with GDF8 (setting [3]) and in the experiment on TGF-β (setting [4]) was over 1000 nM in each case.

For `[N-]=[N+]=NCC1CCC2(CC1)Cc1nc(-c3ccc(F)cc3)c(-c3ccc4ncnn4c3)n1C2` (stereo not drawn) [Compound 85, 3′-([1,2,4]triazolo[1,5-a]pyridin-6-yl)-4-(azidomethyl)-2′-(4-fluorophenyl)-5′H,7′H-spiro[cyclohexane-1,6′-pyrrolo[1,2-a]imidazole]], the IC50 in the experiment with GDF8 (setting [3]) and in the experiment on TGF-β (setting [4]) was over 1000 nM each time.

Take `CNCC1CCC2(CC1)Cc1nc(-c3ccc(F)cc3)c(-c3ccc4ncnn4c3)n1C2` (stereo not drawn) [Compound 86, 1-(3′-([1,2,4]triazolo[1,5-a]pyridin-6-yl)-2′-(4-fluorophenyl)-5′H,7′H-spiro[cyclohexane-1,6′-pyrrolo[1,2-a]imidazol]-4-yl)-N-methylmethanamine]: the IC50 in the experiment on GDF8 (setting [3]) and with TGF-β (setting [4]) was over 1000 nM each time.

In the case of `CN(C)CC1CCC2(CC1)Cc1nc(-c3ccc(F)cc3)c(-c3ccc4ncnn4c3)n1C2` (stereo not drawn) [Compound 87, 1-(3′-([1,2,4]triazolo[1,5-a]pyridin-6-yl)-2′-(4-fluorophenyl)-5′H,7′H-spiro[cyclohexane-1,6′-pyrrolo[1,2-a]imidazol]-4-yl)-N,N-dimethylmethanamine], the IC50 with GDF8 (setting [3]) and in the experiment with TGF-β (setting [4]) was over 1000 nM throughout.

In the case of `O=C(OCc1ccccc1)N1CCC2Cn3c(nc(-c4ccc(F)cc4)c3-c3ccc4ncnn4c3)C2C1` (stereo not drawn) [Compound 88, benzyl 3-([1,2,4]triazolo[1,5-a]pyridin-6-yl)-2-(4-fluorophenyl)-5,5a,6,7,9,9a-hexahydro-8H-imidazo[1′,2′:1,2]pyrrolo[3,4-c]pyridine-8-carboxylate], the IC50 with GDF8 (setting [3]) and in the experiment on TGF-β (setting [4]) was over 1000 nM each time.

For `CN1CCC2Cn3c(nc(-c4ccc(F)cc4)c3-c3ccc4ncnn4c3)C2C1` (stereo not drawn) [Compound 89, 3-([1,2,4]triazolo[1,5-a]pyridin-6-yl)-2-(4-fluorophenyl)-8-methyl-5a,6,7,8,9,9a-hexahydro-5H-imidazo[1′,2′:1,2]pyrrolo[3,4-c]pyridine], the IC50 in the experiment on GDF8 (setting [3]) and in the experiment on TGF-β (setting [4]) was over 1000 nM in each case.

On to `Cc1ccc(Cl)cc1-c1nc2n(c1-c1ccc3ncnn3c1)CCC2` [Compound 90, 6-(2-(5-chloro-2-methyl)-6,7-dihydro-5H-pyrrolo[1,2-a]imidazol-3-yl)-[1,2,4]triaolo[1,5-a]pyridine], for which the IC50 with GDF8 (setting [3]) and with TGF-β (setting [4]) was 100 to 1000 nM throughout.

Turning to `Cc1ccc(-c2ccc3ncnn3c2)cc1-c1nc2n(c1-c1ccc3ncnn3c1)CCC2` [Compound 91, 6-(2-(5-([1,2,4]triazolo[1,5-a]pyridin-6-yl)-2-methylphenyl)-6,7-dihydro-5H-pyrrolo[1,2-a]imidazol-3-yl)-[1,2,4]triazolo[1,5-a]pyridine], the IC50 in the experiment with GDF8 (setting [3]) and in the experiment on TGF-β (setting [4]) was over 1000 nM throughout.

With `Clc1ccc(Cl)c(-c2nc3n(c2-c2ccc4ncnn4c2)CCC3)c1` [Compound 92, 6-(2-(2,5-dichlorophenyl)-6,7-dihydro-5H-pyrrolo[1,2-a]imidazol-3-yl)-[1,2,4]triazolo[1,5-a]pyridine], the IC50 is 50 to 100 nM with GDF8 (setting [1]) and 100 to 1000 nM with TGF-β (setting [2]).

For the molecule `Clc1ccc(Cl)c(-c2nc3n(c2-c2ccc4nccn4c2)CCC3)c1` [Compound 93, 6-(2-(2,5-dichlorophenyl)-6,7-dihydro-5H-pyrrolo[1,2-a]imidazol-3-yl)imidazo[1,2-a]pyridine], the IC50 in the experiment on GDF8 (setting [1]) is under 50 nM; in the experiment with TGF-β (setting [2]), 50 to 100 nM.

Take `Fc1cc(F)c(-c2nc3n(c2-c2ccc4ncnn4c2)CCC3)cc1Cl` [Compound 94, 6-(2-(5-chloro-2,4-difluoro)-6,7-dihydro-5H-pyrrolo[1,2-a]imidazol-3-yl)-[1,2,4]triazolo[1,5-a]pyridine]: the IC50 in the experiment with GDF8 (setting [3]) and in the experiment with TGF-β (setting [4]) was under 50 nM in each case.

In the case of `COc1ccc(-c2nc3n(c2-c2ccc4ncnn4c2)CCC3)cc1` [Compound 95, 6-(2-(4-methoxyphenyl)-6,7-dihydro-5H-pyrrolo[1,2-a]imidazol-3-yl)-[1,2,4]triazolo[1,5-a]pyridine], the IC50 in the experiment with GDF8 (setting [1]) and in the experiment on TGF-β (setting [2]) was over 1000 nM in each case.

With `Cc1ccc(F)c(-c2nc3n(c2-c2ccc4ncnn4c2)CCC3)c1` [Compound 96, 6-(2-(2-fluoro-5-methylphenyl)-6,7-dihydro-5H-pyrrolo[1,2-a]imidazol-3-yl)-[1,2,4]triazolo[1,5-a]pyridine], the IC50 in the experiment with GDF8 (setting [3]) and in the experiment on TGF-β (setting [4]) was under 50 nM each time.

For `Fc1cc(F)c(F)c(-c2nc3n(c2-c2cc4cnccc4s2)CCC3)c1` [Compound 98, 2-(2-(2,3,5-trifluorophenyl)-6,7-dihydro-5H-pyrrolo[1,2-a]imidazol-3-yl)thieno[3,2-c]pyridine], the IC50 in the experiment with GDF8 (setting [3]) and in the experiment with TGF-β (setting [4]) was 100 to 1000 nM each time.

`Fc1cc(F)c(-c2nc3n(c2-c2cc4cnccc4s2)CCC3)cc1F` [Compound 99, 2-(2-(2,4,5-trifluorophenyl)-6,7-dihydro-5H-pyrrolo[1,2-a]imidazol-3-yl)thieno[3,2-c]pyridine]: the IC50 is 50 to 100 nM in the experiment with GDF8 (setting [3]) and 100 to 1000 nM with TGF-β (setting [4]).

For the molecule `Fc1ccccc1-c1nc2n(c1-c1cc3cnccc3s1)CCC2` [Compound 100, 2-(2-(2-fluorophenyl)-6,7-dihydro-5H-pyrrolo[1,2-a]imidazol-3-yl)thieno[3,2-c]pyridine], the results for the IC50 with GDF8 (setting [3]) and in the experiment with TGF-β (setting [4]) were 100 to 1000 nM and over 1000 nM, respectively.

Consider `Fc1ccc(-c2nc3n(c2-c2cc4cnccc4s2)CCC3)cc1` [Compound 101, 2-(2-(4-fluorophenyl)-6,7-dihydro-5H-pyrrolo[1,2-a]imidazol-3-yl)thieno[3,2-c]pyridine], for which the IC50 in the experiment with GDF8 (setting [3]) and with TGF-β (setting [4]) was 100 to 1000 nM each time.

With `Fc1ccc(Cl)cc1-c1nc2n(c1-c1cc3cnccc3s1)CCC2` [Compound 102, 2-(2-(5-chloro-2-fluorophenyl)-6,7-dihydro-5H-pyrrolo[1,2-a]imidazol-3-yl)thieno[3,2-c]pyridine], the IC50 is under 50 nM in the experiment with GDF8 (setting [3]) and 50 to 100 nM in the experiment on TGF-β (setting [4]).

On to `Fc1cc(F)c(-c2nc3n(c2-c2ccc4ncsc4c2)CCN3)cc1F` [Compound 103, 6-(6-(2,4,5-trifluorophenyl)-2,3-dihydro-1H-imidazo[1,2-a]imidazol-5-yl)benzo[d]thiazole], for which the IC50 in the experiment with GDF8 (setting [3]) and in the experiment with TGF-β (setting [4]) was under 50 nM in each case.

In the case of `CC(=O)N1CCn2c1nc(-c1cc(F)c(F)cc1F)c2-c1ccc2ncnn2c1` [Compound 104, 1-(5-([1,2,4]triazolo[1,5-a]pyridin-6-yl)-6-(2,4,5-trifluorophenyl)-2,3-dihydro-1H-imidazo[1,2-a]imidazol-1-yl)ethan-1-one], the IC50 in the experiment with GDF8 (setting [3]) and in the experiment with TGF-β (setting [4]) was over 1000 nM each time.

Regarding `Fc1cc(F)c(-c2nc3n(c2-c2ccc4ncnn4c2)CCN3)cc1F` [Compound 105, 6-(6-(2,4,5-trifluorophenyl)-2,3-dihydro-1H-imidazo[1,2-a]imidazol-5-yl)-[1,2,4]triazolo[1,5-a]pyridine], the IC50 in the experiment on GDF8 (setting [3]) and with TGF-β (setting [4]) was under 50 nM in each case.

Consider `Fc1cc(F)c(-c2nc3n(c2-c2ccc4nccnc4c2)CCN3)cc1F` [Compound 106, 6-(6-(2,4,5-trifluorophenyl)-2,3-dihydro-1H-imidazo[1,2-a]imidazol-5-yl)quinoxaline], for which the IC50 in the experiment with GDF8 (setting [3]) and in the experiment with TGF-β (setting [4]) was under 50 nM each time.
